The structures appear in SMILES notation.

Test system in one series: not given
Experiment: not given
Consider `COc1ccc(C2C(Cc3cc4ccccc4[nH]3)NC3(C(=O)Nc4ccc(Br)cc43)C2C(=O)c2ccc(F)cc2)cc1` (stereo not shown) [25a], for which the melting point (as a rule, the temperature, or range, at which the solid turns liquid) lay in the range of 154 to 156 °C.
On the same count and under the same terms, then `O=C(c1ccc(F)cc1)C1C(c2ccc(Cl)cc2)C(Cc2cc3ccccc3[nH]2)NC12C(=O)Nc1ccc(Br)cc12` (stereo not shown) [25c], with 138 to 140 °C; and `COc1ccc(C2C(Cc3cc4ccccc4[nH]3)NC3(C(=O)Nc4ccc(C)cc43)C2C(=O)c2ccc(F)cc2)cc1` (stereo not shown) [25e], with 103 to 105 °C; and `O=C(c1ccc(F)cc1)C1C(c2ccc(Cl)cc2)C(Cc2cc3ccccc3[nH]2)NC12C(=O)Nc1ccc([N+](=O)[O-])cc12` (stereo not shown) [25f], with 172 to 174 °C.
Still for that read-out and setting: the result for `COc1ccc2c(c1)C1(NC(Cc3cc4ccccc4[nH]3)C(c3ccc(Cl)cc3)C1C(=O)c1ccc(F)cc1)C(=O)N2` (stereo not shown) [25g] reads 142 to 145 °C; that for `CN(C)c1ccc(/C=N/N2C(=O)C(C#N)=CC23c2ccccc2NC2C=CC=CC23)cc1` (stereo not shown) [compound 18], 172 to 174 °C.

The next series deals with Leishmania DNA topoisomerase type IB (purified recombinant LTopIB) (Leishmania donovani, UniProt A0A3Q8IHS4+Q8WQM6). The series is described as follows: Plasmid relaxation assay (relaxation of supercoiled plasmid DNA). The class given is biochemical. The method, then: The relaxation of supercoiled plasmid DNA is the method used for the determination of LTopIB activity. Various doses of each compound were treated with one unit of pure LTopIB (the enzyme to relax 0.5 µg of supercoiled DNA for 30 min at 37 °C) for 20 min at 4 °C. The reaction mixture, including 0.5 μg of supercoiled pBluescript SK(−) plasmid, 10 mM Tris-HCl buffer pH 7.5, 5 mM MgCl2, 0.1 mM EDTA, 15 µg/mL of bovine serum albumin, and 150 mM KCl, was then added in a final volume of 20 μL. After 30 min at 37 °C, the reaction mixtures were stopped by adding 4 μL of loading buffer, which included 5% sarkosyl, 0.12% bromophenol blue, and 25% glycerol. By electrophoresis, the topoisomers were separated on 1% agarose gels and electrophoresed at 2 V/cm for 16 h in a 0.1 M Tris-borate-EDTA buffer (pH 8.0) after being stained with ethidium bromide (0.5 µg/mL). Plotting the percentage of supercoiled DNA versus drug concentrations allowed researchers to determine the 50% inhibition concentration (IC50) values of LTopIB inhibition as the 50% reduction of supercoiled DNA [72].
Leishmania DNA topoisomerase type IB (purified recombinant LTopIB), sequence (Q8WQM6 entry or part of it): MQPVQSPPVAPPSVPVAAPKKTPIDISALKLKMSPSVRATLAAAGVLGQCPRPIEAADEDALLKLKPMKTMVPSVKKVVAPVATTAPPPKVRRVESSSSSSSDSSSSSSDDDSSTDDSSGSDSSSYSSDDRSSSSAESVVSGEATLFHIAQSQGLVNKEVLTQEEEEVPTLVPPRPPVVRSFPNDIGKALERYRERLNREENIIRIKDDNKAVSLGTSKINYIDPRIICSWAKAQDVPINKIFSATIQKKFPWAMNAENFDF
Leishmania DNA topoisomerase type IB (purified recombinant LTopIB), sequence (A0A3Q8IHS4 entry or part of it): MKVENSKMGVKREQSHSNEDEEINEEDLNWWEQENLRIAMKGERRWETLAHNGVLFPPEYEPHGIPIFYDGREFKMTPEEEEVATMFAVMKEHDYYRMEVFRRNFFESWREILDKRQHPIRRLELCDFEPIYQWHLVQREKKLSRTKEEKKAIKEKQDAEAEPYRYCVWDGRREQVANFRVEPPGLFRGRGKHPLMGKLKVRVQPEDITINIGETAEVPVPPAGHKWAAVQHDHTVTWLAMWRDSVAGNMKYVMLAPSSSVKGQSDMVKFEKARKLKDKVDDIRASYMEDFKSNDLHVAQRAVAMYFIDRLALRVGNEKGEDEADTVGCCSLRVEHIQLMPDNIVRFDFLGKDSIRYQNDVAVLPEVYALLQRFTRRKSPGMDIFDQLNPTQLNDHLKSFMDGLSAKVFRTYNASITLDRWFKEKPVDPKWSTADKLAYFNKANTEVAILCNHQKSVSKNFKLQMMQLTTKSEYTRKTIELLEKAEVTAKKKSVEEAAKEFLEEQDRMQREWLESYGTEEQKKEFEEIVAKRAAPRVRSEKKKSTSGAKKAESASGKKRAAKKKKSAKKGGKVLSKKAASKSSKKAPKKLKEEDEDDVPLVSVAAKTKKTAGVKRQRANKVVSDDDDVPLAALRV
Because of the presence of spirooxindole systems in the structure of these compounds, we aimed to assess their inhibitory potential on purified recombinant LTopIB measuring the relaxation of supercoiled plasmid DNA. In this regard, all spirooxindole derivatives were assessed for LTopIB inhibition through the prevention of DNA relaxation in a circular DNA plasmid. […] After this initial test, potential inhibitor dose/response curves were performed to obtain their IC50 values. […]
The relaxation of supercoiled plasmid DNA is the method used for the determination of LTopIB activity.
Various doses of each compound were treated with one unit of pure LTopIB (the enzyme to relax 0.5 µg of supercoiled DNA for 30 min at 37 °C) for 20 min at 4 °C. The reaction mixture including 0.5 μg of supercoiled pBluescript SK(−) plasmid, 10 mM Tris-HCl buffer pH 7.5, 5 mM MgCl2, 0.1 mM EDTA, 15 µg/mL bovine serum albumin, and 150 mM KCl was then added in a final volume of 20 μL. After 30 minutes at 37 °C, the reaction mixtures were stopped by adding 4 μL of loading buffer, which included 5% sarkosyl, 0.12% bromophenol blue, and 25% glycerol. By electrophoresis, the topoisomers were separated in 1% agarose gels were electrophoresed at 2 V/cm for 16 hours in a 0.1 M Tris-borate-EDTA buffer (pH 8.0) after being stained with ethidium bromide (0.5 µg/mL). Plotting the percentage of supercoiled DNA versus drug concentrations allowed researchers to determine the 50% inhibition concentration (IC50) values of LTopIB inhibition as the 50% reduction of supercoiled DNA. […]
As for `CC[C@@]1(O)C(=O)OCc2c1cc1n(c2=O)Cc2cc3ccccc3nc2-1` [Camptothecin, reference compound], the IC50 (as a rule, the concentration needed to halve the response being measured) was 3 µM.

(Values after publication PMC10302753, “Natural-Product-Inspired Microwave-Assisted Synthesis of Novel Spirooxindoles as Antileishmanial Agents: Synthesis, Stereochemical Assignment, Bioevaluation, SAR, and Molecular Docking Studies” (Molecules, 2023).)
